# In US6919306B2, “Method of skin care” (Yaizu Suisankagaku Industry Co. Ltd., priority 1999, dated 2005):
# Marks after values point to notes of the source that are not given here.
# Legend:
# skin surface = assay: Microscopic three-dimensional skin surface analysis (VISIOSCAN); type: in vivo, human; set-up: key to SEsc (Ideal value: Lowest value), Below left eye / SEsc (Ideal value: Lowest value), Left upper arm: SEsc = I/(Nx×Ny)×100; lower = more moist, less scaling; key to SEsm (Ideal value: Lowest value), Left upper arm / SEsm (Ideal value: Lowest value), Below left eye: SEsm = (Co−Cu)×(Fmx−Fmy)×K; lower = smoother skin; SWw (Ideal value: Lowest value), Below left eye / SWw (Ideal value: Lowest value), Left upper arm: scale not given here; conditions: for Kurtosis (Ideal value: 0), Below left eye / Kurtosis (Ideal value: 0), Left upper arm / Kurtosis (Ideal value: 0), Poll / SEr (Ideal value: Lowest value), Below left eye / SEr (Ideal value: Lowest value), Left upper arm / SEr (Ideal value: Lowest value), Poll / SEsc (Ideal value: Lowest value), Below left eye / SEsc (Ideal value: Lowest value), Left upper arm / SEsc (Ideal value: Lowest value), Poll / SEsm (Ideal value: Lowest value), Below left eye / SEsm (Ideal value: Lowest value), Left upper arm / SEsm (Ideal value: Lowest value), Poll / SWw (Ideal value: Lowest value), Below left eye / SWw (Ideal value: Lowest value), Left upper arm / SWw (Ideal value: Lowest value), Poll: NAG 1,000 mg/day oral; for SEr (Ideal value: Lowest value), Below left eye / SEr (Ideal value: Lowest value), Left upper arm / SEr (Ideal value: Lowest value), Poll: skin roughness; for SEsc (Ideal value: Lowest value), Below left eye / SEsc (Ideal value: Lowest value), Left upper arm / SEsc (Ideal value: Lowest value), Poll: skin scaliness; for SEsm (Ideal value: Lowest value), Below left eye / SEsm (Ideal value: Lowest value), Left upper arm / SEsm (Ideal value: Lowest value), Poll: skin smoothness; for SWw (Ideal value: Lowest value), Below left eye / SWw (Ideal value: Lowest value), Left upper arm / SWw (Ideal value: Lowest value), Poll: skin wrinkles
# Method: (§1) To 22 females usually having a tendency of xeroderma and rough skin (average age: 25.5±10.7), a double blind long-term ingestion study was carried out in the following manners provided that a […] were given to a control group.
# (§2) NAG-containing tablets-administered group (NAG group, n=11): Tablets prepared similarly as in Example 1 as described below (NAG amount: 200 mg/tablet), were ingested at a rate of 5 tablets/day (NAG 1,000 mg/day, as a daily dose).
# (§3) The ingestion period was 8 weeks in each group. The inspection was in principle carried out just before the start of ingestion, 4 weeks after the start of ingestion, and just before the completion of ingestion (8 weeks after the start of ingestion).
# This analysis was conducted by using a digital analyzer of the skin surface (VISIONSCAN: manufactured by Courage+Khazaka Electronic Gmbh). In use of this apparatus, the skin surface was irradiated with special ultraviolet ray source, and the image is taken by a high performance CCD camera and digitalized for evaluation. The following factors were sampled as parameters.
# This value is calculated from the average of the width and depth of wrinkles by the following formula (i), and one of indices which show the smoothness of skin. The smaller this value is, the smoother the skin surface is. SEsm=(Co−Cu)×(Fmx−Fmy)×K (i) • Fmx: average width of furrows for the row analysis. • Fmy: average width of furrows for the column analysis. • Co: right frontier of the histogram whose calculation is based on a set-up values. • Cu: left frontier of the histogram whose calculation is based on a set-up values. • K: factor
# This value is obtained by calculating the ratio of points darker than the set-up points in the whole image and further calculating by the following formula (ii), and one of indices which show the roughness of skin. The higher the value is, the rougher the skin is. SEr=I/(Nx×Ny)×100 (ii) • I: counter whose start value is 0 and which is incremented each time the gray value of the current point is smaller than the threshold issued from the set-up programs. • Nx: amount of point per row. • Ny: amount of point per column.
# Epidermolysis parts are counted to be brighter than the set-up values in the image. The SEsc value is obtained by calculating the ratio of these parts relative to the entire part by the following formula (iii), and is one of indices which show the dryness of scale (corneum). The lower the value is, the more moist and the less epidermolysis (scale). SEsc=I/(Nx×Ny)×100 (iii) • I: counter whose start value is 0 and which is incremented each time the gray value of the current point is bigger than the threshold issued from the set-up programs. • Nx: amount of point per row. • Ny: amount of point per column.
# The higher the value is, the more the number of wrinkle is and the wider the width of wrinkles is. SEw=Fmx×Fmy/(Fax×Fay)×Fay/Fax×K (iv) • Fax: amount of furrows for the row analysis. • Fmx: average width of furrows for the row analysis. • Fay: amount of furrows for the column analysis. • Fmy: average width of furrows for the column analysis. • K: factor
# The closer to 0 the value is, the smoother in curve the hue point is and the closer to ideal skin.
# [1] = test system: oil and fat content of skin; assay: Skin oil and fat content by Sebumeter SM810; type: in vivo, human; conditions: for Oil and fat content, Below left eye: NAG 1,000 mg/day oral
# Method: as §1, §2, §3
# The oil and fat content was measured by using Sebumeter SM810 (manufactured by Courage+Khazaka Electronic Gmbh). In use of this apparatus, a special tape which absorbs only the oil and fat content is attached to the measurement site for 30 seconds and the oil and fat content is measured by the change of light transmittance of the tape. This apparatus is known not to be affected by humidity, etc.
# Measurement sites were 1 cm below the left eye, medial part of left upper arm (3 cm above the elbow), and poll (3 cm below spinous process of neck). With respect to the oil and fat content, since most subjects were scored at 0 at the left upper arm and the poll, only the site below the left eye was measured from the 2nd inspection.
# In order to keep the environments for the measurements as equal as possible, a room having its internal conditions adjusted to be constant was prepared before the measurements (room temperature: 18 to 20° C., humidity: 45 to 60%), and the subjects were asked to keep in rest in this room for at least 30 minutes. Further, with respect to the makeup at the measurement site, it was in principle prohibited to put on makeup from 60 minutes before the inspection.
# Wister rats (SPF) = assay: Acute toxic test of NAG; type: in vivo; conditions: rat
# Method: To each of five males and five females of Wister rats (SPF), NAG was given by a single oral administration in an amount of 5,000 mg per kg of body weight. After the administration, these rats were bred for 14 days and observed, and no death was recognized. It was also recognized that the 50% lethal dose (LD50) to the rats was at least 5,000 mg per kg of body weight.
# [2] = NAG group, 1,000 mg/day oral, 8 weeks
compound,measurement,setting,value
"CC(=O)N[C@H]1C(O)O[C@H](CO)[C@@H](O)[C@@H]1O (stereo partly shown) [NAG, N-acetylglucosamine]","Kurtosis (Ideal value: 0), Below left eye",skin surface; after 4 weeks,0.34
same,"Kurtosis (Ideal value: 0), Left upper arm",skin surface; after 4 weeks,0.40
same,"Kurtosis (Ideal value: 0), Poll",skin surface; after 4 weeks,0.39
same,"Kurtosis (Ideal value: 0), Below left eye",skin surface; after 8 weeks,0.30
same,"Kurtosis (Ideal value: 0), Left upper arm",skin surface; after 8 weeks,0.50
same,"Kurtosis (Ideal value: 0), Poll",skin surface; after 8 weeks,0.39
same,"Kurtosis (Ideal value: 0), Below left eye",skin surface; before ingestion,0.58
same,"Kurtosis (Ideal value: 0), Left upper arm",skin surface; before ingestion,0.97
same,"Kurtosis (Ideal value: 0), Poll",skin surface; before ingestion,0.79
same,"SEsm value and SEsc value at the poll, change",skin surface; [2],significant decrease
same,"SEr (Ideal value: Lowest value), Below left eye",skin surface; after 4 weeks,0.26
same,"SEr (Ideal value: Lowest value), Left upper arm",skin surface; after 4 weeks,0.22
same,"SEr (Ideal value: Lowest value), Poll",skin surface; after 4 weeks,0.32
same,"SEr (Ideal value: Lowest value), Below left eye",skin surface; after 8 weeks,0.21
same,"SEr (Ideal value: Lowest value), Left upper arm",skin surface; after 8 weeks,0.28
same,"SEr (Ideal value: Lowest value), Poll",skin surface; after 8 weeks,0.40
same,"SEr (Ideal value: Lowest value), Below left eye",skin surface; before ingestion,0.25
same,"SEr (Ideal value: Lowest value), Left upper arm",skin surface; before ingestion,0.30
same,"SEr (Ideal value: Lowest value), Poll",skin surface; before ingestion,0.51
same,"SEsc (Ideal value: Lowest value), Below left eye",skin surface; after 4 weeks,137.0
same,"SEsc (Ideal value: Lowest value), Left upper arm",skin surface; after 4 weeks,195.8
same,"SEsc (Ideal value: Lowest value), Poll",skin surface; after 4 weeks,201.6
same,"SEsc (Ideal value: Lowest value), Below left eye",skin surface; after 8 weeks,133.0
same,"SEsc (Ideal value: Lowest value), Left upper arm",skin surface; after 8 weeks,202.4
same,"SEsc (Ideal value: Lowest value), Poll","skin surface; after 8 weeks, p < 0.05",169.3*
same,"SEsc (Ideal value: Lowest value), Below left eye",skin surface; before ingestion,238.4
same,"SEsc (Ideal value: Lowest value), Left upper arm",skin surface; before ingestion,342.9
same,"SEsc (Ideal value: Lowest value), Poll",skin surface; before ingestion,352.4
same,"SEsm (Ideal value: Lowest value), Below left eye",skin surface; after 4 weeks,337.6
same,"SEsm (Ideal value: Lowest value), Left upper arm",skin surface; after 4 weeks,324.7
same,"SEsm (Ideal value: Lowest value), Poll","skin surface; after 4 weeks, p < 0.05",338.9*
same,"SEsm (Ideal value: Lowest value), Below left eye",skin surface; after 8 weeks,309.4
same,"SEsm (Ideal value: Lowest value), Left upper arm",skin surface; after 8 weeks,379.9
same,"SEsm (Ideal value: Lowest value), Poll","skin surface; after 8 weeks, p < 0.05",345.2*
same,"SEsm (Ideal value: Lowest value), Below left eye",skin surface; before ingestion,378.1
same,"SEsm (Ideal value: Lowest value), Left upper arm",skin surface; before ingestion,384.7
same,"SEsm (Ideal value: Lowest value), Poll",skin surface; before ingestion,443.8
same,"SWw (Ideal value: Lowest value), Below left eye",skin surface; after 4 weeks,29.0
same,"SWw (Ideal value: Lowest value), Left upper arm",skin surface; after 4 weeks,26.4
same,"SWw (Ideal value: Lowest value), Poll",skin surface; after 4 weeks,23.4
same,"SWw (Ideal value: Lowest value), Below left eye",skin surface; after 8 weeks,27.8
same,"SWw (Ideal value: Lowest value), Left upper arm",skin surface; after 8 weeks,31.9
same,"SWw (Ideal value: Lowest value), Poll",skin surface; after 8 weeks,29.5
same,"SWw (Ideal value: Lowest value), Below left eye",skin surface; before ingestion,33.2
same,"SWw (Ideal value: Lowest value), Left upper arm",skin surface; before ingestion,30.2
same,"SWw (Ideal value: Lowest value), Poll",skin surface; before ingestion,27.3
same,"Oil and fat content, Below left eye",[1]; after 4 weeks,53.0 ± 29.2
same,"Oil and fat content, Below left eye","[1]; after 8 weeks, p < 0.05",40.8 ± 18.7
same,"Oil and fat content, Below left eye",[1]; before ingestion,63.8 ± 42.3
same,"oil and fat content, change",[1]; [2],significant decrease
same,50% lethal dose (LD50),"Wister rats (SPF); both, Wister, in vivo, po, 14 days","at least 5,000 mg per kg of body weight"
same,safety on oral administration,Wister rats (SPF); orally administered 5 g per kg of body weight,safety is confirmed
